In US10098861B1 (SyneuRx International (Taiwan) Corp., priority 2017, dated 2018):

Conditions: 500 mg, >90% RH, ambient temperature, 5 days

SMILES: O=C([O-])c1ccccc1.[Na+] [sodium benzoate]
- change in XRPD pattern: significant changes
